Molecules are shown by their SMILES. Like-named read-outs stand apart in the source and are kept apart here.

The conditions of series [1]: cited from earlier work.
Series [2] deals with T1, NPP1 (Homo sapiens, UniProt P22413).
T1 sequence (P22413 1-925): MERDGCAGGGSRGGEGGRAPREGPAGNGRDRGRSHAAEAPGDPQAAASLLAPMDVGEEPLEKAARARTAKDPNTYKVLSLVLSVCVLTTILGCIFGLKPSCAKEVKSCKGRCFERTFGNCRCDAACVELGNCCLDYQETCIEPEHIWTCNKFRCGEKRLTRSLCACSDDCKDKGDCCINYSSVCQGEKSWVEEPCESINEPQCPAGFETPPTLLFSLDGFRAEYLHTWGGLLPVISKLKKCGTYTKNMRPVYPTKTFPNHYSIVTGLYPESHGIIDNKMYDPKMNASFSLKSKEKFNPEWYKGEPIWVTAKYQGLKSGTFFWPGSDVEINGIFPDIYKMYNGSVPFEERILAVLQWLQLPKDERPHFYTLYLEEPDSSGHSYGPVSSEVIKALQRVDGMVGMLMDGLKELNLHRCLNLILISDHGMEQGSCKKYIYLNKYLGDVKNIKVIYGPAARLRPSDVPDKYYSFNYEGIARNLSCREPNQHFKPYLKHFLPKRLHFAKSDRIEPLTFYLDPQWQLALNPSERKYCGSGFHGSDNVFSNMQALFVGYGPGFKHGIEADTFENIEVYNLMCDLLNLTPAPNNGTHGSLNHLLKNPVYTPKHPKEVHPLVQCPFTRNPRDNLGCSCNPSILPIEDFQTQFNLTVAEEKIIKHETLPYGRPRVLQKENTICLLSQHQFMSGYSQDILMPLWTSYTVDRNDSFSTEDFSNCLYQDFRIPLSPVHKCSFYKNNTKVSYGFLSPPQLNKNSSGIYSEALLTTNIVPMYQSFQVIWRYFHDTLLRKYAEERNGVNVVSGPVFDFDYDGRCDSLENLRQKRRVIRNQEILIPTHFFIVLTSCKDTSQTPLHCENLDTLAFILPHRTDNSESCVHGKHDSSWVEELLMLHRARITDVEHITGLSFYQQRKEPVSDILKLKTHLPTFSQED
Nature of the series: Inhibition of human NPP1, 100 μM p-Nph-5′-TMP as substrate (Tables 5, 6). As to conditions: for % inhibition ± SD at 10 μM, Human NPP1: inactive = no inhibition at 10 μM.

Series [3] addresses T1, NPP1. Nature of the series: Inhibition of human NPP1, 100 μM ATP as substrate (FIG. 9, Table 6). In kind it is biochemical. Conditions: 100 μM ATP as a substrate; read-out: Ki, human NPP1. On the procedure: Each experiment was performed in triplicates;
The target of the next series is T2, Human CD73 (Homo sapiens, UniProt P21589).
T2 sequence (P21589 27-549): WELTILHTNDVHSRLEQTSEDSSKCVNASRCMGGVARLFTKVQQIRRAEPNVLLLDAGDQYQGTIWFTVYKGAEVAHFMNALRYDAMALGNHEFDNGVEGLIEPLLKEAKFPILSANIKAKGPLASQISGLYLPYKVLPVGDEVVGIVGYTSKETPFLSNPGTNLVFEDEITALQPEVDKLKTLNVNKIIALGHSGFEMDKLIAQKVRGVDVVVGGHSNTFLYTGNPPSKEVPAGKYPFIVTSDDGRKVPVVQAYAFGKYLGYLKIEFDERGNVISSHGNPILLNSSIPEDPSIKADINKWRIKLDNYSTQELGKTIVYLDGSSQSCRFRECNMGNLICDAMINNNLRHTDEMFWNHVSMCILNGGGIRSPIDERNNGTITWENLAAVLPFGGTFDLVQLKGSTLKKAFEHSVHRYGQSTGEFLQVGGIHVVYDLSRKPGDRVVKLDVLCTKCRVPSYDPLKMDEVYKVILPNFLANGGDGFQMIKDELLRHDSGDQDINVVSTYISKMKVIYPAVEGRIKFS
The series is described as follows: Inhibition of human CD73, 5 μM [2,8-3H]AMP as substrate. Conditions: 5 μM [2,8-3H]AMP as a substrate; for Ki: read-out: Ki ± SD (μM), Human CD73; for % inhibition ± SD at 10 μM, Human CD73: inactive = no inhibition at 10 μM. In kind it is biochemical.

Another series deals with T3, human NPP3 (Homo sapiens, UniProt O14638).
T3 sequence (O14638 1-875): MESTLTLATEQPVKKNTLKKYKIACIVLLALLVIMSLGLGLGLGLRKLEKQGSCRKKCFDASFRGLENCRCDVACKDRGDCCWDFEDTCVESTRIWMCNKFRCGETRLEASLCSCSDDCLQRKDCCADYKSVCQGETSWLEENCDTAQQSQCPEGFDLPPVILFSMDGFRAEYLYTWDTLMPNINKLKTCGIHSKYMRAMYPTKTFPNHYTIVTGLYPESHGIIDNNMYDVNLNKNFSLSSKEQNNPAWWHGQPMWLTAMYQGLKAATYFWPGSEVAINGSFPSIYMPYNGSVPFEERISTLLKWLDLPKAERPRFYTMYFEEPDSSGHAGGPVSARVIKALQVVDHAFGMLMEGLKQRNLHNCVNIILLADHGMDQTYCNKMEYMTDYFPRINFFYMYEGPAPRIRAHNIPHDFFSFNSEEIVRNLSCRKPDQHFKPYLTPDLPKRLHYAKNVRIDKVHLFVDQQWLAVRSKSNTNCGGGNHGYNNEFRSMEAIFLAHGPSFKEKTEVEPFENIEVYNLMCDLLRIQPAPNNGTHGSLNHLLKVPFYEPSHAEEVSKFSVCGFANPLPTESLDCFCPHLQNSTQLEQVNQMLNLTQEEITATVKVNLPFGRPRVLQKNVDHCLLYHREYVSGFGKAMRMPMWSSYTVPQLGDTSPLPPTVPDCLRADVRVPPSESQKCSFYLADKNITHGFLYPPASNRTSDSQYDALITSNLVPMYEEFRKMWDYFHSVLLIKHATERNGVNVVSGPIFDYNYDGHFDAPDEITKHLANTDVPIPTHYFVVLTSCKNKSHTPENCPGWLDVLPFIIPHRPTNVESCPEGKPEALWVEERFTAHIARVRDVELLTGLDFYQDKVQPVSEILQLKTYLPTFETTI
The series is described as follows: Inhibition of human NPP3, 100 μM p-Nph-5′-TMP as substrate (Tables 5, 7). In kind it is biochemical. As to conditions: 10 μM; 100 μM p-Nph-5′-TMP as a substrate; inactive = no inhibition at 10 μM.

For a further series, the target named is T4, Human CD39 (NTPDase1) (Homo sapiens, UniProt P49961).
T4 sequence (P49961 1-510): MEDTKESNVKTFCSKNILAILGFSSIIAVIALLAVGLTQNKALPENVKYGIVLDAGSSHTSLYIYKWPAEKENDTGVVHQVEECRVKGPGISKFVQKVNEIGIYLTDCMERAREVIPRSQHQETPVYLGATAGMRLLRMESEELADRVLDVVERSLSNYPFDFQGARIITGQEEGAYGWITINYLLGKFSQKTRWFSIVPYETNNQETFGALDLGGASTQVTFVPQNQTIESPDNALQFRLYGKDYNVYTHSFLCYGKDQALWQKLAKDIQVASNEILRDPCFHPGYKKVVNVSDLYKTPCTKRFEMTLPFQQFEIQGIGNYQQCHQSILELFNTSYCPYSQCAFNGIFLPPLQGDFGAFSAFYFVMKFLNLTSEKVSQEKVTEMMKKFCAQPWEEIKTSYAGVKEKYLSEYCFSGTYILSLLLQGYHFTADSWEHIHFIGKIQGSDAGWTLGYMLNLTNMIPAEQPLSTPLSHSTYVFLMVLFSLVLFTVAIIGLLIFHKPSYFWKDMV
Nature of the series: Inhibition of human CD39 (NTPDase1), 100 μM ADP as substrate. It is filed as biochemical. As to conditions: 100 μM ADP as a substrate; for Ki: read-out: Ki ± SD (μM), Human CD39 (NTPDase1).

Series [4] is described as follows: Chemical stability under acidic and basic conditions by 31P-NMR.
Source text: To evaluate the chemical stability of uridine-5′-Pα,α-dithiophosphate analogues, we measured by 31P-NMR the time-dependent percentage of the analogues remaining under basic and acidic conditions, and due to air-oxidation.
Setting [5] is: read-out: Ki ± SD (μM), Human NPP1, 100 μM p-Nph-5′-TMP as a substrate.
[6] abbreviates: 100 μM p-Nph-5′-TMP as a substrate.
Where [7] appears, read: 10 μM, inactive = no inhibition at 10 μM.

For the molecule `Nc1nc(SCc2ccccc2)nc2c1ncn2[C@@H]1O[C@H](COP(O)(=S)OP(=O)(O)OP(=O)(O)O)[C@@H](O)[C@H]1O` (stereo partly drawn) [2-Benzylthio-ATP-α-S], in series [1] (Acidic pH, reference 34), the “Time for decomposition of 5%” value was 0.8 days and the “Time for decomposition of 10%” value is 1.7 days.
On to `CSc1nc(N)c2ncn(C3OC(COP(O)(=S)OP(=O)(O)O)C(O)C3O)c2n1` (stereo not drawn) [2-Methylthio-ADP-α-S], for which, in series [1] (Basic pH, reference 24), the “Time for decomposition of 5%” value was less than 0.021 days and the “Time for decomposition of 10%” value was less than 0.021 days.
Turning to `Nc1ncnc2c1ncn2COCCOP(=O)(O)CP(=O)(O)O` [Analogue 22], the inhibitory constant (Ki) on NPP1 [2] (setting [5]) was 16.3 ± 2.5 µM; at NPP1 [3], 9.6 ± 2.84 µM.
As to `Nc1ncnc2c1ncn2[C@@H]1O[C@H](COP(=O)(O)CS(=O)(=O)O)[C@@H](O)[C@H]1O` [Compound 20], the “% inhibition ± SD at 10 μM, Human NPP1” value on NPP1 [2] (setting [6]) was “inactived”. Moreover, the Ki on Human CD73 turned out to be 49.5 ± 0.7 µM. Further, the “% inhibition ± SD at 10 μM, Human NPP3” value on human NPP3 is “inactived”. Moreover, the “% inhibition ± SD at 10 μM, Human CD39 (NTPDase1)” value (“% inhibition ± SD … (NTPDase1)” for short) at Human CD39 (NTPDase1) (setting [7]) is “inactived”.
As for `Nc1ncnc2c1ncn2[C@@H]1O[C@H](COS(=O)(=O)CS(=O)(=O)O)[C@@H](O)[C@H]1O` [Compound 21], on NPP1 [2] (setting [6]), the “% inhibition ± SD at 10 μM, Human NPP1” value is given as 12 ± 1%. Besides, the Ki on NPP1 [2] (setting [5]) is more than 10 µM. For the same molecule, at Human CD73, the Ki is more than 10 µM and the “% inhibition ± SD at 10 μM, Human CD73” value was 23 ± 3%. Further, the “% inhibition ± SD at 10 μM, Human NPP3” value at human NPP3 is “inactived”. Moreover, the “% inhibition ± SD … (NTPDase1)” value at Human CD39 (NTPDase1) (setting [7]) was “inactived”.
As for `Nc1ncnc2c1ncn2COCCOP(=O)(O)CP(=O)(O)O` [Compound 22], the Ki on Human CD73 is 12.6 ± 1.4 µM; at Human CD39 (NTPDase1) it was more than 10 µM. Further, the “% inhibition ± SD at 10 μM, Human NPP3” value on human NPP3 is “inactived”. Besides, at Human CD39 (NTPDase1) (setting [7]), the “% inhibition ± SD … (NTPDase1)” value is listed as 22 ± 2%.
As for `Nc1ncnc2c1ncn2COCCOP(=O)(O)C(Cl)(Cl)P(=O)(O)O` [Compound 23], on NPP1 [2] (setting [6]), the “% inhibition ± SD at 10 μM, Human NPP1” value is reported as 4 ± 1%. Also, the Ki on NPP1 [2] (setting [5]), on Human CD73 and on Human CD39 (NTPDase1) was more than 10 µM each time. The “% inhibition ± SD at 10 μM, Human CD73” value at Human CD73 is 17 ± 4%. Also, the “% inhibition ± SD at 10 μM, Human NPP3” value at human NPP3 is “inactived”. For the same molecule, the “% inhibition ± SD … (NTPDase1)” value on Human CD39 (NTPDase1) (setting [7]) worked out at 24 ± 3%.
For the molecule `Nc1ncnc2c1ncn2COCCOP(=O)(O)O` [Compound 24], the “% inhibition ± SD at 10 μM, Human NPP1” value on NPP1 [2] (setting [6]) is “inactived”. At Human CD73, the Ki was more than 10 µM and the “% inhibition ± SD at 10 μM, Human CD73” value was determined as 5 ± 3%. Also, the “% inhibition ± SD at 10 μM, Human NPP3” value at human NPP3 is “inactived”. The “% inhibition ± SD … (NTPDase1)” value on Human CD39 (NTPDase1) (setting [7]) is “inactived”.
Regarding `Nc1ncnc2c1ncn2COCCO[PH](=O)O` [Compound 25], the Ki at NPP1 [2] and on Human CD39 (NTPDase1) was more than 10 µM each time. In addition, the inhibition at 10 µM at NPP1 [2] (read-out: % inhibition ± SD at 10 μM, Human NPP1) was 6%; on Human CD39 (NTPDase1) (10 μM, inactive = no inhibition at 10 μM, read-out: % inhibition ± SD at 10 μM, Human CD39 (NTPDase1)) it was 33%. The “% inhibition ± SD at 10 μM, Human CD73” value on Human CD73 was “inactived”. At human NPP3, the “% inhibition ± SD at 10 μM, Human NPP3” value is “inactived”.
`Nc1ncnc2c1ncn2COCCOP(O)(=S)OCCOCn1cnc2c(N)ncnc21` [Compound 26]: the “% inhibition ± SD at 10 μM, Human NPP1” value on NPP1 [2] (setting [6]) was determined as 13 ± 1%. For the same molecule, the Ki at NPP1 [2] (setting [5]) and at Human CD39 (NTPDase1) was more than 10 µM throughout. The “% inhibition ± SD at 10 μM, Human CD73” value on Human CD73 is “inactived”. Moreover, at human NPP3, the “% inhibition ± SD at 10 μM, Human NPP3” value was “inactived”. The “% inhibition ± SD … (NTPDase1)” value at Human CD39 (NTPDase1) (setting [7]) is 15 ± 2%.
For the molecule `O=c1ccn([C@@H]2O[C@H](COP(=O)(O)OP(=O)(O)O)[C@@H](O)[C@H]2O)c(=O)[nH]1` [UDP], the decomposition in series [4] (pD 2.1, after 28 days) was 7%.
On to `O=c1ccn([C@@H]2O[C@H](COP(=O)(O)OP(=O)(O)OP(=O)(O)O)[C@@H](O)[C@H]2O)c(=O)[nH]1` [UTP], for which the “Time for decomposition of 5%” value in series [4] (Acidic pH) stood at 7.5 days; in series [4] (Basic pH), 1 days. Further, the “Time for decomposition of 10%” value in series [4] (Acidic pH) worked out at 19 days; in series [4] (Basic pH) it was 8.5 days. The decomposition in series [4] (acidic, pD 2.1, after 20 days) came out at 11%; in series [4] (basic conditions (pD 12.1), after 20 days) it was 10%.

A word on the Ki: it is the dissociation constant of the complex between target and ligand, obtained from inhibition or displacement. As a reminder, the inhibition is the drop in the measured response relative to a control, in per cent.

The record behind these values is US20220220135A1 (BAR-ILAN UNIVERSITY, priority 2019, published 2022).
